{"source": "patent US20010021697A1", "about": "“METHODS AND COMPOSITIONS FOR THE TREATMENT OF MAMMALIAN INFECTIONS EMPLOYING MEDICAMENTS COMPRISING HYMENOPTERA VENOM, PROTEINAGEOUS OR POLYPEPTIDE COMPONENTS THEREOF, OR ANALOGUES OF SUCH PROTEINACEOUS OR POLYPEPTIDE COMPONENTS” (priority 1987, published 2001)", "assay_type_in_all_cases": "cell-based", "key": {"[1]": {"test_system": "E. coli #G1880E"}, "[2]": {"test_system": "Escherichia coli", "test": "Growth curves with polymyxin B and bumble bee, yellowjacket or baldfaced hornet venom", "conditions": "for optical density, AVERAGE: AVERAGE line; for optical density: single replicates", "protocol": "The activity of hymenoptera venom other than HBV was also determined for bumblee venom, yellow jacket venom and bald faced hornet venom, as shown below in Tables 8, 9"}, "[3]": {"test_system": "E. Coli strain No. G1108E", "test": "Checkerboard titration synergy assay of natural melittin and analogue #6 with polymyxin B"}, "[4]": {"test_system": "E. coli G1108E", "test": "Checkerboard titration synergy assay of melittin analogues with polymyxin B", "conditions": "polymyxin B 6 units/ml, peptide 5 ug/ml, n = 6"}, "[5]": {"conditions": "0 hours after innoculation, YJ 5 ug/ml, BF 5 ug/ml, Pol B 3.125 U/ml alone, Pol B 5 U/ml in the combinations"}, "[6]": {"conditions": "0 hours after innoculation, doses of what is present: Pol B 3.125 Units/ml, BB Venom 5 ug/ml"}, "[7]": {"conditions": "0 hours after innoculation, doses of what is present: Pol B 6.25 Units/ml, BB Venom 20 ug/ml"}, "[8]": {"conditions": "2 hours after innoculation, YJ 5 ug/ml, BF 5 ug/ml, Pol B 3.125 U/ml alone, Pol B 5 U/ml in the combinations"}, "[9]": {"conditions": "2 hours after innoculation, doses of what is present: Pol B 3.125 Units/ml, BB Venom 5 ug/ml"}, "[10]": {"conditions": "2 hours after innoculation, doses of what is present: Pol B 6.25 Units/ml, BB Venom 20 ug/ml"}, "[11]": {"conditions": "4 hours after innoculation, YJ 5 ug/ml, BF 5 ug/ml, Pol B 3.125 U/ml alone, Pol B 5 U/ml in the combinations"}, "[12]": {"conditions": "4 hours after innoculation, doses of what is present: Pol B 3.125 Units/ml, BB Venom 5 ug/ml"}, "[13]": {"conditions": "4 hours after innoculation, doses of what is present: Pol B 6.25 Units/ml, BB Venom 20 ug/ml"}, "[14]": {"conditions": "6 hours after innoculation, YJ 5 ug/ml, BF 5 ug/ml, Pol B 3.125 U/ml alone, Pol B 5 U/ml in the combinations"}, "[15]": {"conditions": "6 hours after innoculation, doses of what is present: Pol B 3.125 Units/ml, BB Venom 5 ug/ml"}, "[16]": {"conditions": "8 hours after innoculation, YJ 5 ug/ml, BF 5 ug/ml, Pol B 3.125 U/ml alone, Pol B 5 U/ml in the combinations"}, "[17]": {"conditions": "8 hours after innoculation, doses of what is present: Pol B 3.125 Units/ml, BB Venom 5 ug/ml"}, "[18]": {"conditions": "8 hours after innoculation, doses of what is present: Pol B 6.25 Units/ml, BB Venom 20 ug/ml"}, "[19]": {"conditions": "12 hours after innoculation, YJ 5 ug/ml, BF 5 ug/ml, Pol B 3.125 U/ml alone, Pol B 5 U/ml in the combinations"}, "[20]": {"conditions": "12 hours after innoculation, doses of what is present: Pol B 3.125 Units/ml, BB Venom 5 ug/ml"}, "[21]": {"conditions": "12 hours after innoculation, doses of what is present: Pol B 6.25 Units/ml, BB Venom 20 ug/ml"}}, "note": "Where “and” joins values, the source holds several entries; their conditions need not be identical. Equal entries are not always repeated. Where two headings read alike, the source gives them in different places.", "data": [{"substance": "Polymyxin B", "values": [{"measurement": "MEAN A660", "setting": "[1]; POLY B = 1250, HBV = 0, T4", "value": 0.159}, {"measurement": "MEAN A660", "setting": "[1]; POLY B = 1250, HBV = 0, T6", "value": 0.172}, {"measurement": "MEAN A660", "setting": "[1]; POLY B = 1250, HBV = 0, T8", "value": 0.259}, {"measurement": "MEAN A660", "setting": "[1]; POLY B = 1250, HBV = 0, T12", "value": 0.778}, {"measurement": "MEAN A660", "setting": "[1]; POLY B = 1250, HBV = 0, T24", "value": 1.362}, {"measurement": "MEAN A660", "setting": "[1]; POLY B = 2500, HBV = 0, T0", "value": 0.006}, {"measurement": "MEAN A660", "setting": "[1]; POLY B = 2500, HBV = 0, T2", "value": 0.074}, {"measurement": "MEAN A660", "setting": "[1]; POLY B = 2500, HBV = 0, T4", "value": 0.123}, {"measurement": "MEAN A660", "setting": "[1]; POLY B = 2500, HBV = 0, T6", "value": 0.109}, {"measurement": "MEAN A660", "setting": "[1]; POLY B = 2500, HBV = 0, T8", "value": 0.167}, {"measurement": "MEAN A660", "setting": "[1]; POLY B = 2500, HBV = 0, T12", "value": 0.075}, {"measurement": "MEAN A660", "setting": "[1]; POLY B = 2500, HBV = 0, T24", "value": 1.037}, {"measurement": "optical density, AVERAGE", "setting": "[2]; [5]", "value": ".038"}, {"measurement": "optical density", "setting": "[2]; [5]", "value": ".038"}, {"measurement": "optical density, AVERAGE", "setting": "[2]; [6]", "value": ".030"}, {"measurement": "optical density", "setting": "[2]; [6]", "value": ".030"}, {"measurement": "optical density, AVERAGE", "setting": "[2]; [7]", "value": ".030"}, {"measurement": "optical density", "setting": "[2]; [7]", "value": ".030"}, {"measurement": "optical density, AVERAGE", "setting": "[2]; [8]", "value": ".480"}, {"measurement": "optical density", "setting": "[2]; [8]", "value": ".477 and .482"}, {"measurement": "optical density, AVERAGE", "setting": "[2]; [9]", "value": ".649"}, {"measurement": "optical density", "setting": "[2]; [9]", "value": ".654 and .642 and .652"}, {"measurement": "optical density, AVERAGE", "setting": "[2]; [10]", "value": ".023"}, {"measurement": "optical density", "setting": "[2]; [10]", "value": ".022 (2×) and .024"}, {"measurement": "optical density, AVERAGE", "setting": "[2]; [11]", "value": 1.03}, {"measurement": "optical density", "setting": "[2]; [11]", "value": 1.03}, {"measurement": "optical density, AVERAGE", "setting": "[2]; [12]", "value": 1.02}, {"measurement": "optical density", "setting": "[2]; [12]", "value": "1.03 and 1.02 (2×)"}, {"measurement": "optical density, AVERAGE", "setting": "[2]; [13]", "value": ".251"}, {"measurement": "optical density", "setting": "[2]; [13]", "value": ".102 and .472 and .180"}, {"measurement": "optical density, AVERAGE", "setting": "[2]; [14]", "value": 1.07}, {"measurement": "optical density", "setting": "[2]; [14]", "value": 1.07}, {"measurement": "optical density, AVERAGE", "setting": "[2]; [15]", "value": 1.03}, {"measurement": "optical density", "setting": "[2]; [15]", "value": 1.03}, {"measurement": "optical density, AVERAGE", "setting": "[2]; 6 hours after innoculation, doses of what is present: Pol B 6.25 Units/ml, BB Venom 20 ug/ml", "value": ".827"}, {"measurement": "optical density, AVERAGE", "setting": "[2]; [16]", "value": 1.08}, {"measurement": "optical density", "setting": "[2]; [16]", "value": 1.08}, {"measurement": "optical density, AVERAGE", "setting": "[2]; [17]", "value": 1.04}, {"measurement": "optical density", "setting": "[2]; [17]", "value": 1.04}, {"measurement": "optical density, AVERAGE", "setting": "[2]; [18]", "value": ".960"}, {"measurement": "optical density", "setting": "[2]; [18]", "value": ".960 and .950 and .970"}, {"measurement": "optical density, AVERAGE", "setting": "[2]; [19]", "value": 1.14}, {"measurement": "optical density", "setting": "[2]; [19]", "value": 1.14}, {"measurement": "optical density, AVERAGE", "setting": "[2]; [20]", "value": 1.13}, {"measurement": "optical density", "setting": "[2]; [20]", "value": "1.12 and 1.14 (2×)"}, {"measurement": "optical density, AVERAGE", "setting": "[2]; [21]", "value": 1.03}, {"measurement": "optical density", "setting": "[2]; [21]", "value": "1.03 (2×) and 1.04"}, {"measurement": "Average optical densities (OD660)", "setting": "[3]; 0 hrs, doses of what is present: Polymyxin B 3 units, peptide 5 ug", "value": ".013"}, {"measurement": "Average optical densities (OD660)", "setting": "[3]; 0 hrs, doses of what is present: Polymyxin B 6 units, peptide 10 ug", "value": ".013"}, {"measurement": "Average optical densities (OD660)", "setting": "[3]; 2 hrs, doses of what is present: Polymyxin B 3 units, peptide 5 ug", "value": ".072"}, {"measurement": "Average optical densities (OD660)", "setting": "[3]; 2 hrs, doses of what is present: Polymyxin B 6 units, peptide 10 ug", "value": ".072"}, {"measurement": "Average optical densities (OD660)", "setting": "[3]; 4 hrs, doses of what is present: Polymyxin B 3 units, peptide 5 ug", "value": ".808"}, {"measurement": "Average optical densities (OD660)", "setting": "[3]; 4 hrs, doses of what is present: Polymyxin B 6 units, peptide 10 ug", "value": ".423"}, {"measurement": "Average optical densities (OD660)", "setting": "[3]; 6 hrs, doses of what is present: Polymyxin B 3 units, peptide 5 ug", "value": 1.06}, {"measurement": "Average optical densities (OD660)", "setting": "[3]; 6 hrs, doses of what is present: Polymyxin B 6 units, peptide 10 ug", "value": ".840"}, {"measurement": "Average optical densities (OD660)", "setting": "[3]; 8 hrs, doses of what is present: Polymyxin B 3 units, peptide 5 ug", "value": 1.08}, {"measurement": "Average optical densities (OD660)", "setting": "[3]; 8 hrs, doses of what is present: Polymyxin B 6 units, peptide 10 ug", "value": ".911"}, {"measurement": "Average optical densities (OD660)", "setting": "[3]; 12 hrs, doses of what is present: Polymyxin B 3 units, peptide 5 ug", "value": 1.15}, {"measurement": "Average optical densities (OD660)", "setting": "[3]; 12 hrs, doses of what is present: Polymyxin B 6 units, peptide 10 ug", "value": ".930"}, {"measurement": "Optical densities (OD660), mean", "setting": "[4]; 0 hours after culture inoculation", "value": ".007"}, {"measurement": "Optical densities (OD660), mean", "setting": "[4]; 2 hours after culture inoculation", "value": ".088"}, {"measurement": "Optical densities (OD660), mean", "setting": "[4]; 4 hours after culture inoculation", "value": ".470"}, {"measurement": "Optical densities (OD660), mean", "setting": "[4]; 6 hours after culture inoculation", "value": ".926"}, {"measurement": "Optical densities (OD660), mean", "setting": "[4]; 8 hours after culture inoculation", "value": 1.02}, {"measurement": "Optical densities (OD660), mean", "setting": "[4]; 10 hours after culture inoculation", "value": 1.04}, {"measurement": "Optical densities (OD660), mean", "setting": "[4]; 12 hours after culture inoculation", "value": 1.06}]}]}
